Results: US6905861B2, “D-aminoacylases, method for producing the same, and method for producing D-amino acids using the same” (Daicel Chemical Industries, Ltd., priority 1998, dated 2005)

What was measured:
[1] = test system: Hypomyces sepulcralis IFO 9102 strain; assay: D-amino acid production and optical purity from N-acetyl-DL-amino acid by washed fungal cells; type: cell-based; conditions: Hypomyces sepulcralis IFO 9102 cells; 0.1% substrate, pH 7.5, 30° C., 24 hours
Experimental: (§1) A platinum loopful of Hypomyces rosellus IFO 6911 strain, Hypomyces sepulcralis IFO 9102 strain, or Hypomyces mycophilus IFO 6785 strain was inoculated into 25 ml of YM medium (containing 0.3% yeast extract, 0.3% malt extract, 0.5% peptone, and 2.0% glucose; pH 6.0) in a 500-ml shouldered flask. The fungi were shake-cultured at 24° C. for 3 days. After culturing, a 5-ml aliquot of the culture medium was centrifuged in a refrigerated centrifuge to collect the fungal cells. The cells were washed with physiological saline solution (5 ml), and collected by centrifugation again. A reaction solution (containing 0.1% N-acetyl-DL-amino acid shown in Table 2 below in Tris-HCl buffer, pH 7.5) was added to the cells thus collected. The mixture was incubated in a 5-ml test tube with shaking at 30° C. for 24 hours. D-Amino acid thus produced was assayed by high-performance liquid chromatography (column, CROWNPAK CR (Daicel Chemical); column temperature, 26° C.; mobile phase, HClO4 aqueous solution pH 2.0; flow rate, 1 ml/min; and detection, 200 nm) and examined for the optical purity.

[2] = test system: Hypomyces rosellus IFO 6911 strain; assay: as above; type: cell-based; conditions: Hypomyces rosellus IFO 6911 cells; 0.1% substrate, pH 7.5, 30° C., 24 hours
Experimental: as §1

[3] = test system: Hypomyces mycophilus IFO 6785 strain; assay: as above; type: cell-based; conditions: Hypomyces mycophilus IFO 6785 cells; 0.1% substrate, pH 7.5, 30° C., 24 hours
Experimental: as §1

D-aminoacylase = assay: Substrate specificity of purified D-aminoacylase (TNBS method); type: biochemical, Hypomyces mycophilus IFO 6785; conditions: for percentage of the specific activity compared with that for N-acetyl-D-methionine taken as 100%, D-enantiomer: 20 mM substrate, 50 mM Tris-HCl pH 7.5, 30° C., 20 min; for activity of the enzyme for the substrate (in words): summary of Table 5
Experimental: The enzyme activity was assayed by determining the amount of amino acid produced using the TNBS method and the HPLC method. In the TMBS method, 100 mM Na2B4O7 (0.5 ml) was added to a sample solution containing amino acid (0.5 ml), 20 μl of 110 mM TNBS (trinitrobenzenesulfonic acid) was then added, and the resulting mixture was quickly stirred. After 5 min, 100 mM NaH2PO4 containing 1.5 mM Na2SO3 (2 ml) was added to the reaction mixture to terminate the color reaction, and the absorbance at 420 nm was measured. HPLC was performed by subjecting a sample solution containing amino acid to high-performance liquid chromatography using an ODS column (column, Wakosil II 5C18 (4.6 dia.×250 mm) (Wako Pure Chemical); eluent, CH3CN/50 mM KH2PO4. H3PO4 (pH 2.5)=2:8; detection, A280 nm; and flow rate, 1.0 ml/min). The retention times were 3.5 min for D-tryptophan and 9.8 min for N-acetyl-D-tryptophan. Using D-tryptophan as the assay standard, one unit (or U) of the enzyme was defined as the amount of the enzyme required to produce 1 μmol of D-tryptophan at 30° C. for 1 min.
Substrate specificity of the enzyme was expressed as the percentage of the specific activity compared with that for N-acetyl-D-methionine taken as 100%. N-chloroacetyl-D-phenylalanine, N-acetyl-D-valine, N-acetyl-D-phenylalanine, N-acetyl-D-tryptophan, N-acetyl-D-leucine, N-acetyl-L-valine, N-acetyl-L-phenylalanine, N-acetyl-L-tryptophan, and N-acetyl-L-leucine substrates were used for the comparison. The enzyme reaction was performed in 50 mM Tris-HCl (pH 7.5) containing 1 µl of the enzyme solution and 20 mM of each substrate (total volume 1.0 ml) at 30° C. for 20 min, and terminated by adding 0.5 ml of a TCA reaction terminating solution according to Tsai et al. (consisting of 110 mM trichloroacetic acid, 220 mM sodium acetate, and 330 mM acetic acid). The enzyme activity was assayed by the TNBS method as described in Example 4(2).

[4] = test system: D-aminoacylase (crude enzyme) of Pythium aphanidermaatum IFO 7030; assay: Crude enzyme activity for each N-Ac-D-amino acid substrate; type: biochemical; conditions: Pythium aphanidermaatum IFO 7030 crude enzyme; 20 mM substrate, 1 mM CoCl2, 50 mM phosphate buffer pH 7.0
Experimental: (§2) Auricularia auriculajudae IFO 5949, Pythium aphanidermaatum IFO 7030, and Menisporopsis novaezelandiae IFO 9179 were each inoculated into sterilized media (100 ml each) (Czapek Dox Broth for IFO 5949, YM1 medium for IFO 7030, and POTATO DEXTROSE BROTH for IFO 9179) in 500-ml Erlenmeyer flasks. The fungi were cultured on a rotary shaker at 210 rpm at 24° C. for 7 days and collected by centrifugation using a […] centrifuge with a RPR10-2 rotor at 8,000 rpm (12,500×g) for 20 min. […] Disrupted cells thus obtained were centrifuged using a […] centrifuge with a RPR20-2 rotor at 17,500 rpm (38,000×g) for 30 min at 4° C. to obtain the supernatant as the crude enzyme. […] Figures in the table denote the amount (mM) of D-amino acids produced from the corresponding N-acetyl-D-amino acids. The D-aminoacylase activity was detected in all the strains tested, producing D-amino acid from the corresponding N-acetyl-D-amino acid.

[5] = test system: D-aminoacylase (crude enzyme) of Menisporopsis novaezelandiae IFO 9179; assay: as above; type: biochemical; conditions: Menisporopsis novaezelandiae IFO 9179 crude enzyme; 20 mM substrate, 1 mM CoCl2, 50 mM phosphate buffer pH 7.0
Experimental: as §2

[6] = test system: D-aminoacylase (crude enzyme) of Auricularia auriculajudae IFO 5949; assay: as above; type: biochemical; conditions: Auricularia auriculajudae IFO 5949 crude enzyme; 20 mM substrate, 1 mM CoCl2, 50 mM phosphate buffer pH 7.0
Experimental: as §2

[7] = test system: Fusarium solani IFO 9975 strain; assay: D-amino acid production from N-acetyl-D-amino acid by washed fungal cells; type: cell-based; conditions: Fusarium solani IFO 9975 cells; 0.1% substrate, Tris-HCl pH 7.5, 30° C., 24 hours
Experimental: (§3) A platinum loopful of Hypomyces aurantius IFO 6847 strain, Hypomyces broomeanus IFO 9164 strain, Hypomyces rosellus IFO 6911 strain, Hypomyces chrysospermus IFO 6817 strain, Hypomyces sepulcralis IFO 9102 strain, Hypomyces subiculosus IFO 6892 strain, Hypomyces mycophilus ATCC 76474 or IFO 6785 strain, or Fusarium solani IFO 9974 or IFO 9975 strain was inoculated into 25 ml of YM medium (containing 0.3% yeast extract, 0.3% malt extract, 0.5% peptone, and 2.0% glucose, pH 6.0) in a 500-ml shouldered flask. The fungi were shake-cultured at 24° C. for 3 days. After culturing, a 5-ml aliquot of the culture medium was centrifuged in a refrigerated centrifuge to collect the fungal cells. The cells were washed with physiological saline solution (5 ml) and collected by centrifugation again. A reaction solution (containing 0.1% N-acetyl-D-amino acid shown in Table 1 below in Tris-HCl buffer, pH 7.5) was then added to the cells thus collected. The mixture was incubated in a 5-ml test tube with shaking at 30° C. for 24 hours.
(§4) D-Amino acid thus produced was determined by high-performance liquid chromatography (column, CROWNPAK CR (Daicel Chemical); column temperature, 26° C.; cooled in ice for only valine; mobile phase, HClO4 aqueous solution, pH 2.0; flow rate, 1 ml/min; and detection, 200 nm).

[8] = test system: Hypomyces chrysospermus IFO 6817 strain; assay: as above; type: cell-based; conditions: Hypomyces chrysospermus IFO 6817 cells; 0.1% substrate, Tris-HCl pH 7.5, 30° C., 24 hours
Experimental: as §3, §4

Fusarium solani IFO 9974 = assay: as above; type: cell-based; conditions: Fusarium solani IFO 9974 cells; 0.1% substrate, Tris-HCl pH 7.5, 30° C., 24 hours
Experimental: as §3, §4

[9] = test system: Hypomyces subiculosus IFO 6892 strain; assay: as above; type: cell-based; conditions: Hypomyces subiculosus IFO 6892 cells; 0.1% substrate, Tris-HCl pH 7.5, 30° C., 24 hours
Experimental: as §3, §4

[10] = test system: Hypomyces broomeanus IFO 9164 strain; assay: as above; type: cell-based; conditions: Hypomyces broomeanus IFO 9164 cells; 0.1% substrate, Tris-HCl pH 7.5, 30° C., 24 hours
Experimental: as §3, §4

[11] = test system: Hypomyces mycophilus ATCC 76474; assay: as above; type: cell-based; conditions: Hypomyces mycophilus ATCC 76474 cells; 0.1% substrate, Tris-HCl pH 7.5, 30° C., 24 hours
Experimental: as §3, §4

[12] = test system: Hypomyces sepulcralis IFO 9102 strain; assay: as above; type: cell-based; conditions: Hypomyces sepulcralis IFO 9102 cells; 0.1% substrate, Tris-HCl pH 7.5, 30° C., 24 hours
Experimental: as §3, §4

[13] = test system: Hypomyces rosellus IFO 6911 strain; assay: as above; type: cell-based; conditions: Hypomyces rosellus IFO 6911 cells; 0.1% substrate, Tris-HCl pH 7.5, 30° C., 24 hours
Experimental: as §3, §4

[14] = test system: Hypomyces aurantius IFO 6847 strain; assay: as above; type: cell-based; conditions: Hypomyces aurantius IFO 6847 cells; 0.1% substrate, Tris-HCl pH 7.5, 30° C., 24 hours
Experimental: as §3, §4

[15] = test system: Hypomyces mycophilus IFO 6785 strain; assay: as above; type: cell-based; conditions: Hypomyces mycophilus IFO 6785 cells; 0.1% substrate, Tris-HCl pH 7.5, 30° C., 24 hours
Experimental: as §3, §4

Structure (SMILES) | D-amino acid produced from N-acetyl-DL-amino acid [1] | D-amino acid produced from N-acetyl-DL-amino acid [2] | D-amino acid produced from N-acetyl-DL-amino acid [3] | percentage of the specific activity compared with that for N-acetyl-D-methionine taken as 100%, D-enantiomer (D-aminoacylase) | amount of D-amino acids produced from the corresponding N-acetyl-D-amino acids [4] | amount of D-amino acids produced from the corresponding N-acetyl-D-amino acids [5] | amount of D-amino acids produced from the corresponding N-acetyl-D-amino acids [6] | activity of the enzyme for the substrate (in words) (D-aminoacylase) | D-amino acid produced from N-acetyl-D-amino acid [7] | D-amino acid produced from N-acetyl-D-amino acid [8] | D-amino acid produced from N-acetyl-D-amino acid (Fusarium solani IFO 9974) | D-amino acid produced from N-acetyl-D-amino acid [9] | D-amino acid produced from N-acetyl-D-amino acid [10] | D-amino acid produced from N-acetyl-D-amino acid [11] | D-amino acid produced from N-acetyl-D-amino acid [12] | D-amino acid produced from N-acetyl-D-amino acid [13] | D-amino acid produced from N-acetyl-D-amino acid [14] | D-amino acid produced from N-acetyl-D-amino acid [15]
CC(=O)NC(Cc1ccccc1)C(=O)O (racemic) [N-acetyl-DL-phenylalanine] | 0.12 mg/mL | 0.21 mg/mL | 0.16 mg/mL |  |  |  |  |  |  |  |  |  |  |  |  |  |  | 
CC(=O)NC(Cc1c[nH]c2ccccc12)C(=O)O (racemic) [N-acetyl-DL-tryptophan] | 0.13 mg/mL | 0.24 mg/mL | 0.10 mg/mL |  |  |  |  |  |  |  |  |  |  |  |  |  |  | 
CC(=O)N[C@H](C)C(=O)O [N-acetyl-D-alanine, N-Acetyl-D-alanine] |  |  |  | 0% | 0.29 mM | 0.09 mM | 1.46 mM |  |  |  |  |  |  |  |  |  |  | 
CC(=O)N[C@H](Cc1ccccc1)C(=O)O [N-acetyl-D-phenylalanine] |  |  |  | 298% |  | 0.44 mM | 4.34 mM | especially active | 0.002 mg/mL | 0.003 mg/mL | 0.001 mg/mL | 0.05 mg/mL | 0.004 mg/mL | 0.003 mg/mL | 0.15 mg/mL | 0.06 mg/mL | 0.005 mg/mL | 0.65 mg/mL
CC(=O)N[C@H](Cc1c[nH]c2ccccc12)C(=O)O [N-acetyl-D-tryptophan] |  |  |  | 109% |  | 1.30 mM | 2.44 mM | very active | 0.001 mg/mL | 0.001 mg/mL | 0 mg/mL | 0.002 mg/mL | 0.002 mg/mL | 0.27 mg/mL | 0.01 mg/mL | 0.08 mg/mL | 0.008 mg/mL | 0.40 mg/mL
CC(=O)N[C@@H](C(=O)O)C(C)C [N-acetyl-D-valine] |  |  |  | 17.5% |  | 0.16 mM | 3.33 mM | somewhat active | 0.22 mg/mL | 3.16 mg/mL | 0 mg/mL | 0.23 mg/mL | 0.18 mg/mL | 0.11 mg/mL | 3.19 mg/mL | 2.73 mg/mL | 0.14 mg/mL | 0.98 mg/mL
